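Values below derive from 48-hour exposures of cells grown in 96-well plates, with endpoints linearly interpolated between the two concentrations bracketing the appropriate inhibition level. The concentration for 50% growth inhibition is given as GI50. TGI: total growth inhibition.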
Columns and labels:
Experiment in all cases: NCI anticancer screen, dose series, 48 h
SR leukemia = system: SR leukemia
LOX IMVI melanoma = system: LOX IMVI melanoma
ACHN renal = system: ACHN renal
SF-268 CNS = system: SF-268 CNS
IGROV1 ovarian = system: IGROV1 ovarian
SK-MEL-2 melanoma = system: SK-MEL-2 melanoma
HOP-62 NSCLC = system: HOP-62 NSCLC
OVCAR-5 ovarian = system: OVCAR-5 ovarian
HCT-116 colon = system: HCT-116 colon
HCC-2998 colon = system: HCC-2998 colon

Structure (SMILES)	GI50 (SR leukemia) [µM]	TGI (SR leukemia) [µM]	GI50 (LOX IMVI melanoma) [µM]	TGI (LOX IMVI melanoma) [µM]	GI50 (ACHN renal) [µM]	TGI (ACHN renal) [µM]	GI50 (SF-268 CNS) [µM]	TGI (SF-268 CNS) [µM]	GI50 (IGROV1 ovarian) [µM]	TGI (IGROV1 ovarian) [µM]	GI50 (SK-MEL-2 melanoma) [µM]	TGI (SK-MEL-2 melanoma) [µM]	GI50 (HOP-62 NSCLC) [µM]	TGI (HOP-62 NSCLC) [µM]	GI50 (OVCAR-5 ovarian) [µM]	TGI (OVCAR-5 ovarian) [µM]	GI50 (HCT-116 colon) [µM]	TGI (HCT-116 colon) [µM]	GI50 (HCC-2998 colon) [µM]	TGI (HCC-2998 colon) [µM]
O=[N+]([O-])c1ccc2[nH]cc(-c3c4ccsc4cc4[nH]c5ccc([N+](=O)[O-])cc5c34)c2c1	0.419	33.3	0.834	5.48	1.52	14.9	1.39	18.5	1.65	8.52	0.861	4.18	1.13	9.25	1.29	7.8	0.865	5.37	1.88	6.27
CC(C)=CC(C(O)c1ccccc1)S(=O)(=O)c1nccn1C (centres undefined)		> 100		> 100		> 100		> 100		> 100		> 100		> 100		> 100		> 100		> 100
C=CCCCCCCCCCCCC1CCC(CC)N1 (centres undefined)		7.12		24.5		31.1		46.6		25.9		29.5		28.5		22.6		20.1		8.04
O=c1ccn(C2OC(CO)C(O)C2O)c(=O)[nH]1 (centres undefined)	> 1000	> 1000	> 1000	> 1000	> 1000	> 1000	> 1000	> 1000	> 1000	> 1000	> 1000	> 1000	> 1000	> 1000		> 1000	> 1000	> 1000	> 1000	> 1000
COc1ccc2c(c1)C(=O)CC(N)C2 (centres undefined)		> 100		> 100		> 100		> 100		> 100		> 100		> 100		> 100		> 100		> 100
CCCCNc1nc(NC(C)(C)C)nc(NC(C)(C)C)n1	2.8	12.9	3.39	23.6	6.41	> 100	48.4	> 100	16.3	> 100	15.4	> 100	18.7	> 100	15.2	> 100	2.44	29.6	8.05	> 100
CC(=O)O[C@H]1C(N(C)C(=O)c2ccccc2)CC[C@]2(C)C3CC[C@@]4(C)C(CC(O)[C@@H]4C(C)N(C)C)[C@@H]3CCC12 (some centres undefined)		> 100		> 100		> 100		> 100		> 100		> 100		> 100		> 100		> 100		> 100
COc1cc2nc(-c3ccc(C(F)(F)F)cc3)cc(OCCCN3CCOCC3)c2cc1OC	0.242	14.3	0.141	0.324	2.01	18.2	5.7	27.9	0.83	21.9	3.32	13.1	1.67	13.1	1.92	18.8	0.583	13.5	1.41	5.57
Nc1nc(-c2cccc([N+](=O)[O-])c2)c(Br)c(=O)[nH]1		> 100		> 100		> 100		> 100		> 100		> 100		> 100		> 100		> 100		> 100
S=C(Nc1ccc(-c2nc3ccccc3[nH]2)cc1)NC1CCCCC1	10.9	52.5	15.4		18.1	42.2	33.1		35.2		36.5		55.7	> 100	42.4		20.7	39.5	16.4	32.4
CCCC(=O)c1c(NOC2OC(COC(C)=O)C(OC(C)=O)C(OC(C)=O)C2OC(C)=O)nc(OC)n(C)c1=O (centres undefined)		> 100		> 100		> 100		> 100		> 100		> 100		> 100		> 100		> 100		> 100
CC1(C)C(=O)N(c2ccccc2)C(=O)N1c1nc2ccccc2[nH]1		> 100		> 100		> 100		> 100		> 100		> 100		> 100		> 100		> 100		> 100
CCOC(=O)[C@@H](C)C[C@H](Cc1ccccc1)NC(=O)c1csc([C@@H](C[C@H](C(C)C)N(C)C(=O)[C@@H](NC(=O)[C@H]2C[C@H](O[Si](C)(C)C(C)(C)C)CCN2C)C(C)C)OC(C)=O)n1	0.0387	1.82	0.304	> 5.08	0.427	> 8.33	0.441	> 8.33	0.272	> 8.33	0.263	> 7.21	0.411	> 8.01	0.296	> 7.43	0.246	1.63	0.182	0.69
COc1cc(OC2OC(C)C(O)C(O)C2O)cc2oc(-c3ccc(O)cc3)c(CC=C(C)C)c(=O)c12 (centres undefined)	4.08	22.5	10.4	23	22	59.8	15.4	32.5	12.9	51.9	35.9	> 100	18.2	49.6	31.4	69.2	8.15	20.8	16.6	40.8
C=CCc1cc2cccc(OC)c2oc1=O		> 100		> 100		> 100		> 100		> 100		> 100		> 100		> 100		> 100		> 100

— PubChem BioAssay (NCI)
